System: bronchoconstricting effects of a standard dose of acetylcholine
Assay: bronchodilation upon aerosol inhalation (inhibition of acetylcholine bronchoconstriction), method of Rosenthale et al.
Type: in vivo
Conditions: guinea pig, i.v. acetylcholine dose producing ca. 30% bronchoconstriction
Excerpt: In using the compounds of the invention to produce bronchodilating effects in warm-blooded animals, they may be administered in a variety of dosage forms: oral, injectable, and aerosol inhalation. Aerosol inhalation is a preferred method because of its rapid onset of action, great potency, and specificity of action. The particular dosage to obtain the bronchodilating effect will vary with the particular compound employed, the particular animal involved, and the degree of bronchodilation desired. In the guinea pig, by aerosol inhalation, the dose to produce bronchodilation is from about 0.15 micrograms to about 25 micrograms, and preferably from about 0.15 to about 15 micrograms. The bronchodilation produced upon aerosol inhalation can be observed by the method of Rosenthale et al., J. Pharmacol. Exp. Ther., 178, 541 (1971). Using this procedure the following results were obtained:
*The dose (i.v.) of acetylcholine which produces a ca. 30%

| SMILES | Percent Inhibition of the Bronchoconstricting effects of a standard dose of acetylcholine (dose 1.5 μg) [%] | Percent Inhibition of the Bronchoconstricting effects of a standard dose of acetylcholine (dose 15 μg) [%] | Percent Inhibition of the Bronchoconstricting effects of a standard dose of acetylcholine (dose .015 μg) [%] | Percent Inhibition of the Bronchoconstricting effects of a standard dose of acetylcholine (dose .15 μg) [%] | Percent Inhibition of the Bronchoconstricting effects of a standard dose of acetylcholine (dose .0015 μg) [%] |
| --- | --- | --- | --- | --- | --- |
| C#CC(O)(CCCCC)CC[C@H]1[C@H](O)CC(=O)[C@@H]1C/C=C\CCCC(=O)O (stereo partly shown) [13,14-dihydro-15-ethynyl-PGE2, 13,14-Dihydro-15-Ethynyl-PGE2] | 100 | 91 | 94 | 96 |  |
| C#CC(O)(CCCCC)CC[C@@H]1[C@@H](C/C=C\CCCC(=O)O)[C@H](O)C[C@H]1O (stereo partly drawn) [13,14-dihydro-15-ethynyl-PGF2β, 13,14-Dihydro-15-Ethynyl PGF2β] | 44 | 63 |  |  |  |
| C#CC(O)(CCCCC)CC[C@H]1[C@H](O)CC(=O)[C@@H]1CCCCCCC(=O)O (stereo partly shown) [tetrahydro-15-ethynyl-PGE2, 15-Ethynyl-Tetrahydro-PGE2] | 100 |  | 86 | 99 | 51 |
| C#C[C@](O)(CCCCC)CC[C@H]1[C@H](O)CC(=O)[C@@H]1CCCCCCC(=O)O [tetrahydro-15β-ethynyl-PGE2, 15β-ethynyl-tetrahydro-PGE2] |  |  | 95 | 98 | 58 |
